Laboratory results: PMC2362731, “Phase I study of Carzelesin (U-80,244) given (4-weekly) by intravenous bolus schedule” (British Journal of Cancer, 1999)

Test system: patients with advanced solid tumours
Assay: Phase I toxicity of Carzelesin, 4-weekly 10 min IV infusion (NCI-CTC grading)
Format: in vivo, human
Conditions: for No. of courses with delayed recovery (no. of pts): delayed more than 3 days
Description: Carzelesin is a cyclopropylpyrroloindole analogue which acts as a DNA-sequence-specific alkylating agent. In this phase I study, Carzelesin was given as a 4-weekly 10 min IV infusion to 51 patients with advanced solid tumours. Patients received a median of two courses (range 1–5) at one of nine dose levels: 24, 48, 96, 130, 150, 170, 210, 250 and 300 μg m^−2. According to NCI-CTC criteria, non-haematological toxicities (grade 1/2) included fever, nausea and vomiting, mucositis and anorexia, none of which was clearly dose related. The dose-limiting toxicity was haematological and consisted mainly of neutropenia and to a lesser extent thrombocytopenia. From the dose level 150 μg m^−2, the haematological toxicity (particularly thrombocytopenia) was delayed in onset, prolonged and cumulative in some patients. In several courses, double WBC nadirs occurred. The maximum tolerated dose for a single course was 300 μg m^−2. From the dose level 170 μg m^−2, the intended dose intensity could not be delivered to most patients receiving > 2 courses owing to cumulative haematological toxicity. The dose level with the best dose intensity for multiple courses was 150 μg m^−2. The pharmacokinetics of Carzelesin and its metabolites (U-76,073; U-76,074) have been established in 31 patients during the first course of treatment using a HPLC method. […] The concentration of U-76,074 (active metabolite) extended above the lower limit of quantitation (1 ng ml^−1) for short periods of time and only at the higher dose levels. There was no relationship between neutropenia and the AUC of the prodrug Carzelesin, but the presence of detectable plasma levels of the active metabolite U-76,074 was usually associated with a substantial decrease in ANC values. © 1999 Cancer Research Campaign
Carzelesin (U-80,244, Figure 1A) is a cyclopropylpyrroloindole (CPI) prodrug analogue of CC-1065. […] CPI drugs are a class of compounds with unique DNA interactive properties. These agents fit into the minor groove region of DNA, and the CPI function in the molecule mediates a covalent binding to the N3 position of adenine in A-T rich regions, thus forming DNA adducts in a sequence selective fashion (Hurley et al, 1984; Reynolds et al, 1985). Three new CPIs have now been developed. […] Bizelesin differs from the classical CPI drugs in that it contains two chloromethyl functions, which are both converted (via intramolecular rearrangements) to the CPI alkyl- ating species that interact with DNA. Consequently, this agent is capable of forming DNA interstrand cross-links (Lee et al, 1991). […] Therefore, efforts were directed to modu- late the alkylation rate by the preparation of CPI prodrugs that would require chemical or enzymatic conversion. The activation of Carzelesin is a two-step reaction with hydrolysis of the phenyl- urethane substituent to form the intermediate compound U-76,073, followed by ring closure to form the active product U-76,074 (Figure 1B). […] This higher efficacy may be related to the pharmacologic features of the compound. […] Phase I study of Carzelesin (U-80,244) given (4-weekly) by intravenous bolus schedule A Awada1, CJA Punt2, MJ Piccart1, O Van Tellingen3, L Van Manen2, J Kerger1, Y Groot4, J Wanders4, J Verweij5 and DJTh Wagener2 1Institut Jules Bordet, Bd de Waterloo 125, 1000 Brussels, Belgium; 2University Hospital, Geert Grooteplein 8, Box 9101, 6500 HB Nijmegen, The Netherlands; 3The Netherlands Cancer Institute (Antoni van Leeuwenhoek Huis), Plesmanlaan 121, 1066 CX Amsterdam, The Netherlands; 4European Organization for Research and Treatment of Cancer - New Drug Development Office, PO Box 7057, Amsterdam, The Netherlands; 5Rotterdam Cancer Institute, Groene Hilledijk 301, 3075 EA Rotterdam, The Netherlands; on behalf of the EORTC Early Clinical Studies Group and EORTC NDDO Summary Carzelesin is a cyclopropylpyrroloindole analogue which acts as a DNA-sequence-specific alkylating agent. […]

CCN(CC)c1ccc2cc(C(=O)Nc3ccc4[nH]c(C(=O)N5C[C@@H](CCl)c6c5cc(OC(=O)Nc5ccccc5)c5[nH]cc(C)c65)cc4c3)oc2c1 [Carzelesin]
dose level with the best dose intensity for multiple courses (4-weekly 10 min IV infusion): 150 μg m^−2
maximum tolerated dose for a single course (4-weekly 10 min IV infusion): 300 μg m^−2
No. of reduced courses due to haematological toxicity (Table 2, dose level 24 μg m-2): 0
No. of courses with delayed recovery (no. of pts) (Table 2, dose level 24 μg m-2): 0
No. of reduced courses due to haematological toxicity (Table 2, dose level 48 μg m-2): 0
No. of courses with delayed recovery (no. of pts) (Table 2, dose level 48 μg m-2): 0
No. of reduced courses due to haematological toxicity (Table 2, dose level 96 μg m-2): 0
No. of courses with delayed recovery (no. of pts) (Table 2, dose level 96 μg m-2): 0
No. of reduced courses due to haematological toxicity (Table 2, dose level 130 μg m-2): 0
No. of courses with delayed recovery (no. of pts) (Table 2, dose level 130 μg m-2): 0
No. of courses with delayed recovery (no. of pts) (Table 2, dose level 150 μg m-2): 3 (1)
No. of reduced courses due to haematological toxicity (Table 2, dose level 150 μg m-2, reduced to 130, 1 patient): 3
No. of reduced courses due to haematological toxicity (Table 2, dose level 170 μg m-2): 0
No. of courses with delayed recovery (no. of pts) (Table 2, dose level 170 μg m-2): 4 (4)
No. of courses with delayed recovery (no. of pts) (Table 2, dose level 210 μg m-2): 5 (5)
No. of reduced courses due to haematological toxicity (Table 2, dose level 210 μg m-2, reduced to 96, 105, 150, 4 patients): 6
No. of courses with delayed recovery (no. of pts) (Table 2, dose level 250 μg m-2): 3 (3)
No. of reduced courses due to haematological toxicity (Table 2, dose level 250 μg m-2, reduced to 130, 170, 3 patients): 6
No. of courses with delayed recovery (no. of pts) (Table 2, dose level 300 μg m-2): 2 (2)
No. of reduced courses due to haematological toxicity (Table 2, dose level 300 μg m-2, reduced to 150, 2 patients): 2
Neutropenia grade 3/4, No. of courses (Table 3, dose level 24 μg m-2): 0
Neutropenia grade 3/4, No. of patients (worst grade per patient) (Table 3, dose level 24 μg m-2): 0
Neutropenia grade 3/4, patients following the first course (Table 3, dose level 24 μg m-2): 0
No. of toxic patients following the first course (Table 3, dose level 24 μg m-2): 0
Thrombocytopenia grade 3/4, No. of courses (Table 3, dose level 24 μg m-2): 0
Thrombocytopenia grade 3/4, No. of patients (worst grade per patient) (Table 3, dose level 24 μg m-2): 0
Thrombocytopenia grade 3/4, patients following the first course (Table 3, dose level 24 μg m-2): 0
No. of toxic patients/courses (grade 3/4 neutropenia and/or thrombocytopenia) (Table 3, dose level 24 μg m-2, 4/6 evaluable patients/courses): 0
Neutropenia grade 3/4, No. of courses (Table 3, dose level 48 μg m-2): 0
Neutropenia grade 3/4, No. of patients (worst grade per patient) (Table 3, dose level 48 μg m-2): 0
Neutropenia grade 3/4, patients following the first course (Table 3, dose level 48 μg m-2): 0
No. of toxic patients following the first course (Table 3, dose level 48 μg m-2): 0
Thrombocytopenia grade 3/4, No. of courses (Table 3, dose level 48 μg m-2): 0
Thrombocytopenia grade 3/4, No. of patients (worst grade per patient) (Table 3, dose level 48 μg m-2): 0
Thrombocytopenia grade 3/4, patients following the first course (Table 3, dose level 48 μg m-2): 0
No. of toxic patients/courses (grade 3/4 neutropenia and/or thrombocytopenia) (Table 3, dose level 48 μg m-2, 3/7 evaluable patients/courses): 0
Neutropenia grade 3/4, No. of courses (Table 3, dose level 96 μg m-2): 0/1
Neutropenia grade 3/4, No. of patients (worst grade per patient) (Table 3, dose level 96 μg m-2): 0/1
Neutropenia grade 3/4, patients following the first course (Table 3, dose level 96 μg m-2): 0/1
No. of toxic patients following the first course (Table 3, dose level 96 μg m-2): 2
Thrombocytopenia grade 3/4, No. of courses (Table 3, dose level 96 μg m-2): 1/0
Thrombocytopenia grade 3/4, No. of patients (worst grade per patient) (Table 3, dose level 96 μg m-2): 1/0
Thrombocytopenia grade 3/4, patients following the first course (Table 3, dose level 96 μg m-2): 1/0
No. of toxic patients/courses (grade 3/4 neutropenia and/or thrombocytopenia) (Table 3, dose level 96 μg m-2, 5/8 evaluable patients/courses): 2/2
Neutropenia grade 3/4, No. of courses (Table 3, dose level 130 μg m-2): 2/0
Neutropenia grade 3/4, No. of patients (worst grade per patient) (Table 3, dose level 130 μg m-2): 2/0
Neutropenia grade 3/4, patients following the first course (Table 3, dose level 130 μg m-2): 0
No. of toxic patients following the first course (Table 3, dose level 130 μg m-2): 0
Thrombocytopenia grade 3/4, No. of courses (Table 3, dose level 130 μg m-2): 2/1
Thrombocytopenia grade 3/4, No. of patients (worst grade per patient) (Table 3, dose level 130 μg m-2): 2/1
Thrombocytopenia grade 3/4, patients following the first course (Table 3, dose level 130 μg m-2): 0
No. of toxic patients/courses (grade 3/4 neutropenia and/or thrombocytopenia) (Table 3, dose level 130 μg m-2, 5/9 evaluable patients/courses): 3/3
Neutropenia grade 3/4, No. of courses (Table 3, dose level 150 μg m-2): 2/2
Neutropenia grade 3/4, No. of patients (worst grade per patient) (Table 3, dose level 150 μg m-2): 1/2
Neutropenia grade 3/4, patients following the first course (Table 3, dose level 150 μg m-2): 0/1
No. of toxic patients following the first course (Table 3, dose level 150 μg m-2): 2
Thrombocytopenia grade 3/4, No. of courses (Table 3, dose level 150 μg m-2): 1/1
Thrombocytopenia grade 3/4, No. of patients (worst grade per patient) (Table 3, dose level 150 μg m-2): 1/1
Thrombocytopenia grade 3/4, patients following the first course (Table 3, dose level 150 μg m-2): 1/1
No. of toxic patients/courses (grade 3/4 neutropenia and/or thrombocytopenia) (Table 3, dose level 150 μg m-2, 6/14 evaluable patients/courses): 4/5
Neutropenia grade 3/4, No. of courses (Table 3, dose level 170 μg m-2): 1/3
Neutropenia grade 3/4, No. of patients (worst grade per patient) (Table 3, dose level 170 μg m-2): 1/3
Neutropenia grade 3/4, patients following the first course (Table 3, dose level 170 μg m-2): 0/2
No. of toxic patients following the first course (Table 3, dose level 170 μg m-2): 4
Thrombocytopenia grade 3/4, No. of courses (Table 3, dose level 170 μg m-2): 5/2
Thrombocytopenia grade 3/4, No. of patients (worst grade per patient) (Table 3, dose level 170 μg m-2): 3/2
Thrombocytopenia grade 3/4, patients following the first course (Table 3, dose level 170 μg m-2): 3/0
No. of toxic patients/courses (grade 3/4 neutropenia and/or thrombocytopenia) (Table 3, dose level 170 μg m-2, 9/16 evaluable patients/courses): 6/8
Neutropenia grade 3/4, No. of courses (Table 3, dose level 210 μg m-2): 3/3
Neutropenia grade 3/4, No. of patients (worst grade per patient) (Table 3, dose level 210 μg m-2): 2/3
Neutropenia grade 3/4, patients following the first course (Table 3, dose level 210 μg m-2): 3/1
No. of toxic patients following the first course (Table 3, dose level 210 μg m-2): 4
Thrombocytopenia grade 3/4, No. of courses (Table 3, dose level 210 μg m-2): 0/2
No. of toxic patients/courses (grade 3/4 neutropenia and/or thrombocytopenia) (Table 3, dose level 210 μg m-2, 7/10 evaluable patients/courses): 5/6
Thrombocytopenia grade 3/4, No. of patients (worst grade per patient) (Table 3, dose level 210 μg m-2, one patient had pre-existing grade 1 thrombocytopenia): 0/2
